Laboratory results: patent US11351173B2, “Substituted pyrrolo[1,2-a]pyrimidines and their use in the treatment of medical disorders” (Bial—R&D Investments, S.A., priority 2014, dated 2022)
In brackets after ≈: the same amount, converted by molar mass.

Key:
[1] = biological target: T1, glucocerebrosidase (Gcase) (Homo sapiens, UniProt P04062); experiment: Glucocerebrosidase (Gcase) activation assay, 4-methylumbelliferyl-beta-D-glucopyranoside substrate, fluorescence readout; format: biochemical; details: for activation at 0.1 µM / Percent Gcase Activation, 0.1 μM Test Compound: test compound at 0.1 μM; for activation at 0.1 µM: read-out: Percent Gcase Activation, 0.1 μM Test Compound; for activation at 1 µM / Percent Gcase Activation, 1 μM Test Compound: test compound at 1.0 μM; for activation at 1 µM: read-out: Percent Gcase Activation, 1 μM Test Compound
T1 construct: micellar solution containing 10 nM GCase and 100 nM saposin C
T1 sequence (P04062 40-536): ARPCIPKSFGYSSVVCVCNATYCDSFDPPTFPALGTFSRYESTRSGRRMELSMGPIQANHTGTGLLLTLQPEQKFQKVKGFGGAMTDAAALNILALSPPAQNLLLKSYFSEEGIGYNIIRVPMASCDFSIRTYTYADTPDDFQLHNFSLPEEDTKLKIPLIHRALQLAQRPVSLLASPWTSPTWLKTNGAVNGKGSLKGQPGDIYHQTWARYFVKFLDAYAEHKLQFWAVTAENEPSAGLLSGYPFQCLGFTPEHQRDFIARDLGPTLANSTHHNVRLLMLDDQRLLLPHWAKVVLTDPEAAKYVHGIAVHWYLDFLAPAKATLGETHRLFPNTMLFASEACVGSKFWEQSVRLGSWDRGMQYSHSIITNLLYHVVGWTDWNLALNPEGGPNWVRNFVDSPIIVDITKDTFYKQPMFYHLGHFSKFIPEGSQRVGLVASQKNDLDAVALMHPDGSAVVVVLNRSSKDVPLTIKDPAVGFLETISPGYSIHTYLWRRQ
Outline: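 Readout is endpoint fluorescence (ex 365, em 440 nm) after glycine pH 12.5 stop of a 15-min room-temperature reaction. Enzyme mix: GCase 10 nM plus saposin C 100 nM in 0.37 mol % PS/0.32 mM triton micelles, pH 4.7, compound pre-incubated 30 min; substrate solution 2 mM before 1:1 mixing. Tested at 1.0/0.1 μM, then 3-fold, 8-point series up to 5 μM.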

[2] = Compound solubility in water; details: for solubility: Compound Solubility in Water

| SMILES | activation at 0.1 µM [1] | activation at 1 µM [1] | solubility ([2]; water) | Percent Gcase Activation, 0.1 μM Test Compound [1] | Percent Gcase Activation, 1 μM Test Compound [1] | Compound Solubility in Water ([2]; water) | solubility ([2]; water, in water) | Compound Solubility in Water ([2]; in water) |
| --- | --- | --- | --- | --- | --- | --- | --- | --- |
| Cc1cc(C)n2ccc(C(=O)N[C@@H]3CCCc4ccccc43)c2n1 [III-168] | > 20% | > 60% | 0.7 µg/mL (≈ 2.19 µM) | – | – | – | – | – |
| Cc1cc(C)n2ccc(C(=O)Nc3ccc(-c4ccco4)nc3)c2n1 [III-10] | > 20% | > 60% | 0.3 µg/mL (≈ 0.903 µM) | – | – | – | – | – |
| CCCOCCO[C@H]1CC[C@H](NC(=O)c2ccn3c(C)cc(C)nc23)CC1 [III-197] | < 10% | 30 to 60% | 16.9 µg/mL (≈ 45.2 µM) | – | – | – | – | – |
| CCCOC[C@H]1CC[C@H](NC(=O)c2ccn3c(C)cc(C)nc23)CC1 [III-114] | > 20% | > 60% | 1.3 µg/mL (≈ 3.78 µM) | – | – | – | – | – |
| COCc1cc(C)n2ccc(C(=O)N[C@H]3CCCc4ccccc43)c2n1 [III-42] | > 20% | > 60% | 0.4 µg/mL (≈ 1.14 µM) | – | – | – | – | – |
| CCCCO[C@H]1CC[C@H](NC(=O)c2ccn3c(COC)cc(C(C)C)nc23)CC1 [III-36] | > 20% | > 60% | 3.5 µg/mL (≈ 8.72 µM) | – | – | – | – | – |
| Cc1cc(C)n2ccc(C(=O)Nc3ccc(C)c(-c4ncco4)c3)c2n1 [III-14] | – | – | – | *** (greater than 20% Gcase activation) | +++ (Gcase activation greater than 60%) | <1.5 µg/mL | – | – |
| Cc1cc(C)n2ccc(C(=O)Nc3ccc(-c4cnn(C)c4)cc3)c2n1 [III-278] | – | – | – | *** (greater than 20% Gcase activation) | – | – | 0.06 µg/mL (≈ 0.174 µM) | – |
| CCOC1(C)CCC(NC(=O)c2ccn3c(C)cc(C)nc23)CC1 (stereo not drawn) [III-232] | < 10% | < 30% | – | – | – | – | 9.4 µg/mL (≈ 28.5 µM) | – |
| Cc1cc(C(F)(F)F)nc2c(C(=O)NC3CCC4(CCCCO4)C3)ccn12 (stereo not drawn) [III-249] | – | – | – | – | +++ (Gcase activation greater than 60%) | – | – | 12.6 µg/mL |
| CCCCO[C@H]1CC[C@H](NC(=O)c2ccn3c(C4CC4)cc(C)nc23)CC1 [III-44] | 10 to 20% | > 60% | 2.3 µg/mL (≈ 6.22 µM) | – | – | – | – | – |
| Cc1cc(C)n2ccc(C(=O)NC3CCCc4ccc(S(C)(=O)=O)cc43)c2n1 (stereo not drawn) [III-230] | < 10% | < 30% | – | – | – | – | 13.8 µg/mL (≈ 34.7 µM) | – |
| CCCCCOc1ccc(NC(=O)c2ccn3c(C)cc(C)nc23)cc1 [III-6] | > 20% | > 60% | < 0.1 µg/mL | – | – | – | – | – |
| O=C(NC1CCCc2ccccc21)c1ccn2c(C(F)F)cc(C(F)F)nc12 (stereo not drawn) [III-24] | > 20% | > 60% | 0.2 µg/mL (≈ 0.511 µM) | – | – | – | – | – |
| Cc1ccnc2c(C(=O)NC(C)(C)c3ccccc3)ccn12 [III-259] | < 10% | 30 to 60% | – | – | – | – | 16.7 µg/mL (≈ 56.9 µM) | – |
| CCCCO[C@H]1CC[C@H](NC(=O)c2ccn3c(C)cc(F)nc23)CC1 [III-72] | < 10% | 30 to 60% | 14.3 µg/mL (≈ 41.2 µM) | – | – | – | – | – |
| COCCCO[C@H]1CC[C@H](NC(=O)c2ccn3c(C)cc(C)nc23)CC1 [III-107] | < 10% | < 30% | 13.2 µg/mL (≈ 36.7 µM) | – | – | – | – | – |
| Cc1cc(C)n2ccc(C(=O)NC3CCCc4ccncc43)c2n1 (stereo not drawn) [III-227] | < 10% | < 30% | – | – | – | – | 15.7 µg/mL (≈ 49 µM) | – |
| Cc1cc(C)n2ccc(C(=O)Nc3ccc(Cl)c(-c4cnco4)c3)c2n1 [III-214] | > 20% | > 60% | – | – | – | – | 0.01 µg/mL (≈ 0.0273 µM) | – |
| C#Cc1ccc(C(C)(C)NC(=O)c2ccn3c(C)cc(COC)nc23)cc1 [III-61] | > 20% | > 60% | 2.5 µg/mL (≈ 6.92 µM) | – | – | – | – | – |

| SMILES | activation at 0.1 µM [1] | activation at 1 µM [1] | solubility ([2]; water) | Percent Gcase Activation, 0.1 μM Test Compound [1] | Percent Gcase Activation, 1 μM Test Compound [1] | Compound Solubility in Water ([2]; water) | solubility ([2]; water, in water) | Compound Solubility in Water ([2]; in water) |
| --- | --- | --- | --- | --- | --- | --- | --- | --- |
| Cc1ccn2ccc(C(=O)Nc3ccc(-c4ncco4)cc3)c2n1 [III-265] | < 10% | < 30% | – | – | – | – | 2 µg/mL (≈ 6.28 µM) | – |
| C#CCCCCO[C@H]1CC[C@H](NC(=O)c2ccn3c(C)cc(C)nc23)CC1 [III-208] | > 20% | > 60% | – | – | – | – | 0.8 µg/mL (≈ 2.18 µM) | – |
| Cc1cc(C)n2ccc(C(=O)Nc3ccc(-c4ncco4)cc3)c2n1 [III-274] | – | – | – | *** (greater than 20% Gcase activation) | +++ (Gcase activation greater than 60%) | – | 0.06 µg/mL (≈ 0.181 µM) | – |
| Cc1cc(C)n2ccc(C(=O)Nc3ccc(-c4cccs4)cn3)c2n1 [III-116] | > 20% | > 60% | 0.003 µg/mL (≈ 0.00861 µM) | – | – | – | – | – |
| CCCCCN(C)C(=O)[C@H]1CC[C@H](NC(=O)c2ccn3c(C)cc(C)nc23)CC1 [III-203] | < 10% | 30 to 60% | – | – | – | – | 17 µg/mL (≈ 42.7 µM) | – |
| CCCCO[C@H]1CC[C@H](NC(=O)c2ccn3c(C(F)F)cc(COC)nc23)CC1 [III-35] | > 20% | > 60% | 11.7 µg/mL (≈ 28.6 µM) | – | – | – | – | – |
| CCCCO[C@H]1C2CCC1C[C@@H](NC(=O)c1ccn3c(C)cc(C)nc13)C2 [III-185] | > 20% | > 60% | 3.1 µg/mL (≈ 8.39 µM) | – | – | – | – | – |
| Cc1cc(C)n2ccc(C(=O)NC3CCC4(CCCCO4)CC3)c2n1 (stereo not drawn) [III-113] | – | – | – | * (less than 10% Gcase activation) | +++ (Gcase activation greater than 60%) | 19.7 µg/mL | – | – |
| Cc1cc(C)n2ccc(C(=O)N[C@H]3CC[C@H](OC4CCCC4)CC3)c2n1 [III-132] | > 20% | > 60% | 5.8 µg/mL (≈ 16.3 µM) | – | – | – | – | – |
| CCCCOC(=O)N1CC(NC(=O)c2ccn3c(C)cc(C)nc23)C1 [III-137] | < 10% | < 30% | 15.5 µg/mL (≈ 45 µM) | – | – | – | – | – |
| Cc1cc(C)n2ccc(C(=O)NC3CCC(C4CCCO4)CC3)c2n1 (stereo not drawn) [III-200] | – | – | – | * (less than 10% Gcase activation) | – | 12.4 µg/mL | – | – |
| Cc1cc(C)n2ccc(C(=O)NC3CCc4nc(C)sc4C3)c2n1 (stereo not drawn) [III-111] | < 10% | < 30% | 30.6 µg/mL (≈ 89.9 µM) | – | – | – | – | – |
| O=C(N[C@H]1CCCc2ccccc21)c1ccn2c(C3CC3)ccnc12 [III-161] | < 10% | 30 to 60% | 0.9 µg/mL (≈ 2.72 µM) | – | – | – | – | – |
| Cc1cc(C)n2ccc(C(=O)N[C@@H](C)c3ccccc3)c2n1 [III-166] | 10 to 20% | > 60% | 2 µg/mL (≈ 6.82 µM) | – | – | – | – | – |
| CCCCCO[C@@H]1CC[C@H](NC(=O)c2ccn3c(C)cc(C)nc23)C1 [III-180] | – | – | – | * (less than 10% Gcase activation) | +++ (Gcase activation greater than 60%) | 10.4 µg/mL | – | – |
| COCc1cc(C(F)F)n2ccc(C(=O)NC3(C)CCOc4cc(F)c(F)cc43)c2n1 (stereo not drawn) [III-58] | 10 to 20% | > 60% | 4.1 µg/mL (≈ 9.37 µM) | – | – | – | – | – |
| Cc1cc(C)n2ccc(C(=O)N[C@H]3CC[C@H](OCC4CC(F)(F)C4)CC3)c2n1 [III-95] | 10 to 20% | > 60% | 3.1 µg/mL (≈ 7.92 µM) | – | – | – | – | – |
| Cc1cc(C)n2ccc(C(=O)N[C@H]3CC[C@H](Oc4cccnc4)CC3)c2n1 [III-206] | < 10% | < 30% | – | – | – | – | 4.1 µg/mL (≈ 11.2 µM) | – |
| COc1cc(NC(=O)c2ccn3c(C)cc(C)nc23)ccc1-c1cnco1 [III-87] | > 20% | 30 to 60% | 0.1 µg/mL (≈ 0.276 µM) | – | – | – | – | – |
| C#Cc1ccc(NC(=O)c2ccn3c(C)cc(C)nc23)c(OC)c1 [III-129] | > 20% | > 60% | 0.3 µg/mL (≈ 0.939 µM) | – | – | – | – | – |
